In brackets after ≈: the same amount, converted by molar mass. Where two headings read alike, the source gives them in different places.
How the values were obtained:
[1] = target: T1, porcine pancreatic elastase (Sus scrofa, UniProt P00772); assay: Porcine pancreatic elastase inhibition assay; format: biochemical; settings: for IC50: substrate concentration near Km (1.5 mM N-succinyl-Ala-Ala-Ala-p-nitroanilide), read-out: Porcine pancreatic elastase inhibitory activity IC50
T1 construct: purchased EPC EC134
Experimental: (§1) The test samples for 1-6 were prepared in DMSO by (log/2)-fold dilutions ranging from 1 mM to 100 pM. All assays were performed in triplicate. Phenylmethylsulfonyl fluoride (PMSF) was used as a positive control in the enzyme assays.
To test the inhibition of porcine pancreatic elastase (Elastase-high purity; EPC, EC134), 75 μg/mL solution of elastase was prepared using Tris-HCl (pH 8.0). […] After preincubation of 165 μL of Tris-HCl (pH 8.0), 10 μL of elastase solution, and 10 μL of test samples in DMSO (5% final concentration) in a microtiter plate at 30° C. for 20 min, 15 μL of substrate solution (1.5 mM final concentration) was added to the mixture. The increase in absorbance was measured for 30 min at intervals of 5 min at 405 nm. Competitive binding was determined by plotting enzyme activity against substrate concentrations in the presence of different inhibitor concentrations (Lineweaver-Burk plot).

[2] = target: T2, α-chymotrypsin (bovine pancreas) (Bos taurus, UniProt P00766); assay: α-Chymotrypsin inhibition assay; format: biochemical; settings: substrate concentration near Km (0.75 mM N-succinyl-Gly-Gly-Phe-p-nitroanilide)
T2 construct: purchased Sigma C4129
Experimental: as §1
(§2) Inhibitory activity against α-chymotrypsin (bovine pancreas; Sigma, C4129) was determined as follows. A 1-mg/mL solution of chymotrypsin was prepared in assay buffer (50 mM Tris-HCl/100 mM NaCl/1 mM CaCl2, pH 7.8). […] The increase in absorbance was measured for 30 min at intervals of 5 min at 405 nm.

[3] = test system: HT29 colon adenocarcinoma cells; assay: MTT-based cell viability assessment; settings: highest concentration tested (50 μM)
Experimental: The effects of compounds 5 and 6 on the proliferation of cancer cells was also assessed.

[4] = target: T3, trypsin from porcine pancreas (Sus scrofa, UniProt P00761); assay: Trypsin inhibition assay; format: biochemical
T3 construct: purchased Sigma T0303
Experimental: as §1, §2
Inhibitory activity against trypsin was assayed as described above for chymotrypsin, using trypsin from porcine pancreas (Sigma, T0303) and Nα-benzoyl-DL-arginine-4-nitroanilide hydrochloride as the substrate solution.

trypsin = settings: cited from earlier work
elastase = elastase (Sus scrofa, UniProt P00772); settings: literature, cited from earlier work
chymotrypsin = settings: literature, Amp-containing compound; cited from earlier work

T1 sequence (P00772 27-266): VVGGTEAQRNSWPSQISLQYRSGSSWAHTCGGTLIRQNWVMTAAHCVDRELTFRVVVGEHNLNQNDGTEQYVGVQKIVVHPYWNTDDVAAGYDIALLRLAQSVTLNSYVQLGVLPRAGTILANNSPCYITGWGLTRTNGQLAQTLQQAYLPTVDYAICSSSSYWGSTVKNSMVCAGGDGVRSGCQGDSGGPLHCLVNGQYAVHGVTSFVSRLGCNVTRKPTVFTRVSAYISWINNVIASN
Sequence of elastase (P00772 27-266): as above
T3 sequence (P00761 9-231): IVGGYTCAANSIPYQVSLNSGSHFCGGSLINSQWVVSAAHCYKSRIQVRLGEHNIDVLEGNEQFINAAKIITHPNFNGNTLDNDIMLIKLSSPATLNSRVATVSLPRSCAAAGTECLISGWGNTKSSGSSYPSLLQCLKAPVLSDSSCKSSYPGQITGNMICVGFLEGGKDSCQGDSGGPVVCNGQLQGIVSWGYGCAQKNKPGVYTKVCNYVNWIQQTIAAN

C/C=C1\NC(=O)C(NC(=O)C(CCc2ccc(O)cc2)NC(=O)C(C)NC(=O)C(O)CO)C(C)OC(=O)C(C(C)C)NC(=O)C(Cc2ccc(O)cc2)N(C)C(=O)C(Cc2ccccc2)N2C(=O)C(CCC2O)NC1=O (stereo not shown) [Compound 1, Lyngbyastatin 5]
IC50 [1]: 3.2 ± 2 nM | IC50 [2]: 2800 ± 300 nM

C/C=C1\NC(=O)[C@@H](NC(=O)[C@H](CCc2ccc(O)cc2)NC(=O)[C@H](C)NC(=O)[C@H](O)COS(=O)(=O)O)[C@@H](C)OC(=O)[C@H](C(C)C)NC(=O)[C@H](Cc2ccc(O)cc2)N(C)C(=O)[C@H](Cc2ccccc2)N2C(=O)[C@H](CC[C@H]2OC)NC1=O [Compound 2, Lyngbyastatin 6]
IC50 [1]: 3.3 ± 0.8 nM | IC50 [2]: 2500 ± 800 nM

C/C=C1\NC(=O)C(NC(=O)C(CCC(N)=O)NC(=O)CCC)C(C)OC(=O)C(C(C)C)NC(=O)C(Cc2ccc(O)cc2)N(C)C(=O)C(Cc2ccccc2)N2C(=O)C(CCC2O)NC1=O (stereo not shown) [Compound 4, somamide B, reference compound]
IC50 [1]: 9.5 ± 5.2 nM | IC50 [2]: 4200 ± 500 nM

CC(=O)N1CCC[C@H]1C(=O)N[C@H](C(=O)N[C@@H]1C(=O)N[C@@H](CC(C)C)C(=O)NC2CC[C@@H](O)N(C2=O)[C@@H](Cc2ccccc2)C(=O)N(C)C(Cc2ccc(O)cc2)C(=O)N[C@@H](C(C)C)C(=O)O[C@@H]1C)[C@@H](C)O (stereo partly shown) [Compound 5, Kempopeptin A]
elastase inhibition and selectivity over chymotrypsin [1]: inhibited elastase with a slight selectivity over chymotrypsin | effect on growth of HT29 cells [3]: did not significantly affect the growth

CCCC(=O)N[C@H](C(=O)N[C@@H]1C(=O)N[C@@H](CCCCN)C(=O)N[C@H]2CC[C@@H](O)N(C2=O)[C@@H]([C@@H](C)CC)C(=O)N(C)[C@@H](Cc2ccc(OC)c(Br)c2)C(=O)N[C@@H](C(C)C)C(=O)O[C@@H]1C)C(C)C [Compound 6, Kempopeptin B]
trypsin inhibition, selectivity versus elastase and chymotrypsin [4]: selective in vitro trypsin inhibition | trypsin inhibition, selectivity versus elastase and chymotrypsin ([4]; listed as kempopeptin B): inhibited only trypsin activity | effect on growth of HT29 cells [3]: did not significantly affect the growth

C/C=C1\NC(=O)C(NC(=O)C(CCc2ccc(O)cc2)NC(=O)C(C)NC(=O)C(O)COS(=O)(=O)O)C(C)OC(=O)C(C(C)C)NC(=O)C(Cc2ccc(O)cc2)N(C)C(=O)C(Cc2ccccc2)N2C(=O)C(CCC2O)NC1=O (stereo not shown) [lyngbyastatin 4]
trypsin activity upon treatment, previous findings (trypsin; previous publication (J. Nat. Prod. 2007, 70, 124-127)): unaffected

CCCCCC(=O)N[C@@H](CC(=O)O)C(=O)N[C@@H]1C(=O)N[C@@H](CCCCN)C(=O)N[C@H]2CC[C@@H](O)N(C2=O)[C@@H]([C@@H](C)CC)C(=O)N(C)[C@@H](Cc2ccc(O)cc2)C(=O)N[C@@H](C(C)C)C(=O)O[C@@H]1C [micropeptin SD944]
IC50 against trypsin (trypsin; literature value): 8.0 µg/mL (≈ 8.46 µM)

oscillapeptin C
elastase inhibition (elastase; Amp-containing compound): does not inhibit elastase | chymotrypsin inhibition (chymotrypsin): still inhibits chymotrypsin

planktopeptin BL843
protease-inhibitory activity compared with the other planktopeptins (elastase): one order of magnitude lower

From US20110124569A1, “MACROCYCLIC COMPOUNDS, PROTEASE INHIBITION, AND METHODS OF TREATMENT” (priority 2007, published 2011)
